Source: PubChem BioAssay AID1918993 (Molecular Pharmacology Branch, DTP, NCI, 2023)
Several values for one entry are separate records, joined by “and”; a condition that tells them apart may be missing. Equal values may be shown once.

Tested on: 233499-124-R-J3-PDC complex spheroid growth
Test: Anticancer human tumor 233499-124-R-J3-PDC patient-derived colon adenocarcinoma cell line growth inhibition [AhR]
Settings: for viability, T/C: stronger effect = lower value; active = viability on the fitted dose curve at most 10% of control; inactive = the rest
How it was run: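 Agents were dosed in half-log steps down from roughly clinical Cmax, or from 10 microM where Cmax was unknown, alone and with AhR antagonists. Read-out: percent test/control growth of tumor spheroids containing HUVEC and MSC stromal cells.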

[1] = curve of first compound, second compound 0.1 µM
[2] = curve of first compound, second compound 0.316 µM
[3] = curve of first compound, second compound 1 µM
[4] = curve of first compound, second compound 3.16 µM
[5] = curve of first compound, second compound 10 µM
[6] = second compound 0.1 µM, first compound 0.0316 µM
[7] = second compound 0.1 µM, first compound 0.1 µM
[8] = second compound 0.1 µM, first compound 0.316 µM
[9] = second compound 0.1 µM, first compound 1 µM
[10] = second compound 0.1 µM, first compound 3.16 µM
[11] = second compound 0.1 µM, first compound 10 µM
[12] = second compound 0.316 µM, first compound 0.0316 µM
[13] = second compound 0.316 µM, first compound 0.1 µM
[14] = second compound 0.316 µM, first compound 0.316 µM
[15] = second compound 0.316 µM, first compound 1 µM
[16] = second compound 0.316 µM, first compound 3.16 µM
[17] = second compound 0.316 µM, first compound 10 µM
[18] = second compound 1 µM, first compound 0.0316 µM
[19] = second compound 1 µM, first compound 0.1 µM
[20] = second compound 1 µM, first compound 0.316 µM
[21] = second compound 1 µM, first compound 1 µM
[22] = second compound 1 µM, first compound 3.16 µM
[23] = second compound 1 µM, first compound 10 µM
[24] = second compound 3.16 µM, first compound 0.0316 µM
[25] = second compound 3.16 µM, first compound 0.1 µM
[26] = second compound 3.16 µM, first compound 0.316 µM
[27] = second compound 3.16 µM, first compound 1 µM
[28] = second compound 3.16 µM, first compound 3.16 µM
[29] = second compound 3.16 µM, first compound 10 µM
[30] = second compound 10 µM, first compound 0.0316 µM
[31] = second compound 10 µM, first compound 0.1 µM
[32] = second compound 10 µM, first compound 0.316 µM
[33] = second compound 10 µM, first compound 1 µM
[34] = second compound 10 µM, first compound 3.16 µM
[35] = second compound 10 µM, first compound 10 µM
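Also: spheroids exposed to agents for seven days before reading.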

NS(=O)(=O)OCC1CC(n2ccc3c(NC4CCc5ccccc54)ncnc32)CC1O (centres undefined) + Cc1cncc(-c2nc(NCCc3c[nH]c4ccccc34)c3ncn(C(C)C)c3n2)c1
203 nM: IC50 [4]
622 nM: IC50 [1]
< 31.6 nM: IC50 [5]
active: viability, T/C [10] 3.52% | viability, T/C [11] 1.45% | viability, T/C [15] 9.63% | viability, T/C [16] 2.6% | viability, T/C [17] 2.07% | viability, T/C [21] 4.87% | viability, T/C [22] 3.05% | viability, T/C [23] 5.22% | viability, T/C [27] 3.64% | viability, T/C [28] 2.03% | viability, T/C [29] 1% | viability, T/C [33] 1.9% | viability, T/C [34] 1.17% | viability, T/C [35] 0.46%
523 nM: IC50 [2]
inactive: viability, T/C [6] 98.7% | viability, T/C [7] 107% | viability, T/C [8] 98.2% | viability, T/C [9] 16.1% | viability, T/C [12] 103% | viability, T/C [13] 101% | viability, T/C [14] 81.4% | viability, T/C [18] 102% | viability, T/C [19] 79.7% | viability, T/C [20] 83.1% | viability, T/C [24] 93.6% | viability, T/C [25] 74.9% | viability, T/C [26] 35.1% | viability, T/C [30] 20.5% | viability, T/C [31] 17.1% | viability, T/C [32] 23.3%
515 nM: IC50 [3]

CC(CO)NC(=O)c1cc(-c2ccc(Cl)cc2)nn(-c2cnn(C)c2)c1=O (centres undefined)
inactive: viability, T/C (compound 0.316 µM) 94.2% [middle of 21 runs] | viability, T/C (compound 3.16 µM) 91.3% [middle of 19 runs]
> 10000 nM: IC50 (compound alone, run of 07/12/2022)

CCN(c1cc(-c2ccc(CN3CCOCC3)cc2)cc(C(=O)NCc2c(C)cc(C)[nH]c2=O)c1C)C1CCOCC1 + Cc1cncc(-c2nc(NCCc3c[nH]c4ccccc34)c3ncn(C(C)C)c3n2)c1
inactive: viability, T/C (second compound 0.1 µM, first compound 0.00949 µM) 99.1% | viability, T/C (second compound 0.1 µM, first compound 0.03 µM) 101% | viability, T/C (second compound 0.1 µM, first compound 0.0949 µM) 76% | viability, T/C (second compound 0.1 µM, first compound 0.3 µM) 82.3% | viability, T/C (second compound 0.1 µM, first compound 0.949 µM) 95.6% | viability, T/C (second compound 0.1 µM, first compound 3 µM) 90.3% | viability, T/C (second compound 0.316 µM, first compound 0.00949 µM) 108% | viability, T/C (second compound 0.316 µM, first compound 0.03 µM) 109% | viability, T/C (second compound 0.316 µM, first compound 0.0949 µM) 94.6% | viability, T/C (second compound 0.316 µM, first compound 0.3 µM) 100% | viability, T/C (second compound 0.316 µM, first compound 0.949 µM) 106% | viability, T/C (second compound 0.316 µM, first compound 3 µM) 94.6% | viability, T/C (second compound 1 µM, first compound 0.00949 µM) 80.3% | viability, T/C (second compound 1 µM, first compound 0.03 µM) 79.6% | viability, T/C (second compound 1 µM, first compound 0.0949 µM) 75.7% | viability, T/C (second compound 1 µM, first compound 0.3 µM) 78.6% | viability, T/C (second compound 1 µM, first compound 0.949 µM) 80.5% | viability, T/C (second compound 1 µM, first compound 3 µM) 84% | viability, T/C (second compound 3.16 µM, first compound 0.00949 µM) 76.4% | viability, T/C (second compound 3.16 µM, first compound 0.03 µM) 76.9% | viability, T/C (second compound 3.16 µM, first compound 0.0949 µM) 82.4% | viability, T/C (second compound 3.16 µM, first compound 0.3 µM) 89.5% | viability, T/C (second compound 3.16 µM, first compound 0.949 µM) 73.2% | viability, T/C (second compound 3.16 µM, first compound 3 µM) 76% | viability, T/C (second compound 10 µM, first compound 0.00949 µM) 16.1% | viability, T/C (second compound 10 µM, first compound 0.03 µM) 21% | viability, T/C (second compound 10 µM, first compound 0.0949 µM) 9.73% | viability, T/C (second compound 10 µM, first compound 0.3 µM) 10.7%
active: viability, T/C (second compound 10 µM, first compound 0.949 µM) 16.7% | viability, T/C (second compound 10 µM, first compound 3 µM) 3.73%
> 3000 nM: IC50 [1] | IC50 [2] | IC50 [3] | IC50 [4]
< 9.49 nM: IC50 [5]

COc1cc(Nc2ncc3c(n2)-c2ccc(Cl)cc2C(c2c(F)cccc2OC)=NC3)ccc1C(=O)O + Cc1ccccc1N=Nc1ccc(NC(=O)c2ccnn2C)c(C)c1
> 10000 nM: IC50 [1] | IC50 [2] | IC50 [3] | IC50 [4] | IC50 [5]
inactive: viability, T/C [6] 92.5% | viability, T/C [7] 81.9% | viability, T/C [8] 96.3% | viability, T/C [9] 98.5% | viability, T/C [10] 86.5% | viability, T/C [11] 96.7% | viability, T/C [12] 83.1% | viability, T/C [13] 77.5% | viability, T/C [14] 96.4% | viability, T/C [15] 93.1% | viability, T/C [16] 96.6% | viability, T/C [17] 84.2% | viability, T/C [18] 89% | viability, T/C [19] 93.2% | viability, T/C [20] 90.4% | viability, T/C [21] 87.2% | viability, T/C [22] 97.5% | viability, T/C [23] 92.1% | viability, T/C [24] 91.5% | viability, T/C [25] 80.4% | viability, T/C [26] 102% | viability, T/C [27] 105% | viability, T/C [28] 85.2% | viability, T/C [29] 100% | viability, T/C [30] 109% | viability, T/C [31] 101% | viability, T/C [32] 102% | viability, T/C [33] 101% | viability, T/C [34] 116% | viability, T/C [35] 115%

NS(=O)(=O)OCC1CC(n2ccc3c(NC4CCc5ccccc54)ncnc32)CC1O (centres undefined)
632 nM and 486 nM and 266 nM: IC50 (curve of compound)
active: viability, T/C (compound 3.16 µM) 5.89% and 5.66% and 5.16% | viability, T/C (compound 10 µM) 3% and 4.4% and 2.68%
inactive: viability, T/C (compound 0.0316 µM) 101% (2×) and 105% | viability, T/C (compound 0.1 µM) 107% and 91.4% and 77.7% | viability, T/C (compound 0.316 µM) 98.2% and 66% and 47.5% | viability, T/C (compound 1 µM) 18.1% and 25.5% and 14%

CC1COCCN1c1cc(-c2ccnn2C)c2ccnc(-c3ccn[nH]3)c2n1 (centres undefined) + Cc1ccccc1N=Nc1ccc(NC(=O)c2ccnn2C)c(C)c1
984 nM: IC50 [3]
inactive: viability, T/C (second compound 0.1 µM, first compound 0.00316 µM) 91.3% | viability, T/C (second compound 0.1 µM, first compound 0.01 µM) 98.8% | viability, T/C [6] 105% | viability, T/C [7] 93.9% | viability, T/C [8] 68.2% | viability, T/C [9] 55.1% | viability, T/C (second compound 0.316 µM, first compound 0.00316 µM) 99.4% | viability, T/C (second compound 0.316 µM, first compound 0.01 µM) 93.9% | viability, T/C [12] 92.2% | viability, T/C [13] 92.3% | viability, T/C [14] 75% | viability, T/C [15] 50.7% | viability, T/C (second compound 1 µM, first compound 0.00316 µM) 87.1% | viability, T/C (second compound 1 µM, first compound 0.01 µM) 97.1% | viability, T/C [18] 85.6% | viability, T/C [19] 91.8% | viability, T/C [20] 81.6% | viability, T/C [21] 49.3% | viability, T/C (second compound 3.16 µM, first compound 0.00316 µM) 91.8% | viability, T/C (second compound 3.16 µM, first compound 0.01 µM) 103% | viability, T/C [24] 85% | viability, T/C [25] 74% | viability, T/C [26] 57.2% | viability, T/C [27] 58% | viability, T/C (second compound 10 µM, first compound 0.00316 µM) 103% | viability, T/C (second compound 10 µM, first compound 0.01 µM) 99.3% | viability, T/C [30] 101% | viability, T/C [31] 80.5% | viability, T/C [32] 74.5% | viability, T/C [33] 58.7%
> 1000 nM: IC50 [1] | IC50 [2] | IC50 [4] | IC50 [5]

O=C(C=Cc1cccc(S(=O)(=O)Nc2ccccc2)c1)NO + Cc1cncc(-c2nc(NCCc3c[nH]c4ccccc34)c3ncn(C(C)C)c3n2)c1
active: viability, T/C [11] 9.95% | viability, T/C [17] 5.83% | viability, T/C [23] 1.53% | viability, T/C [29] 3.18% | viability, T/C [30] 7.06% | viability, T/C [31] 6.48% | viability, T/C [32] 7.01% | viability, T/C [33] 2.38% | viability, T/C [34] 1.78% | viability, T/C [35] 0.38%
inactive: viability, T/C [6] 103% | viability, T/C [7] 96.8% | viability, T/C [8] 111% | viability, T/C [9] 122% | viability, T/C [10] 82% | viability, T/C [12] 84.6% | viability, T/C [13] 98.7% | viability, T/C [14] 94.4% | viability, T/C [15] 105% | viability, T/C [16] 107% | viability, T/C [18] 84.6% | viability, T/C [19] 97.7% | viability, T/C [20] 88.8% | viability, T/C [21] 103% | viability, T/C [22] 95.5% | viability, T/C [24] 78.6% | viability, T/C [25] 78.2% | viability, T/C [26] 80.8% | viability, T/C [27] 93.2% | viability, T/C [28] 49.4%
5460 nM: IC50 [3]
5760 nM: IC50 [2]
< 31.6 nM: IC50 [5]
3100 nM: IC50 [4]
5270 nM: IC50 [1]

Cc1cncc(-c2nc(NCCc3c[nH]c4ccccc34)c3ncn(C(C)C)c3n2)c1
inactive: viability, T/C (compound 0.1 µM) 96.2% [middle of 20 runs] | viability, T/C (compound 0.316 µM) 86.2% [middle of 19 runs] | viability, T/C (compound 1 µM) 78.4% [middle of 20 runs]
4.98 µM [middle of 23 runs]: IC50 (compound alone, run of 07/18/2022)
